In patent publication US12606541B2, “PPARg modulators and methods of use” (Eisai R&D Management Co., Ltd., priority 2020, dated 2026):
Where two headings read alike, the source gives them in different places.

Target: T1, His6-TEV-PPARγ-(234-505) (Homo sapiens, UniProt P37231)
T1 construct: The His6-TEV-PPARγ-(234-505) protein for assay was expressed and purified; TEV cleavage site (N); made in house
T1 sequence (P37231 234-505): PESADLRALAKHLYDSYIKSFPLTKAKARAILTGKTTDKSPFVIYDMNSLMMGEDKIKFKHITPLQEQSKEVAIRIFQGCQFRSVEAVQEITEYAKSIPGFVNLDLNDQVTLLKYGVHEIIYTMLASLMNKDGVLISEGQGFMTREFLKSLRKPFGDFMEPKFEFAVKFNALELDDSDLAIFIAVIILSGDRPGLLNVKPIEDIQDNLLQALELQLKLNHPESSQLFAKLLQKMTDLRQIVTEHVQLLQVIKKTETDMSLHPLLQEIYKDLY
Test: TR-FRET Assay to Measure Co-R Peptide Recruitment to PPARγ
Type: biochemical
Protocol: TR-FRET Assay to Measure Co—R Peptide Recruitment to PPARγ
The 2× detection solution contained anti-6×His-Terbium antibody (CisBio) and FITC labeled Co—R peptide (SMRT-ID2 from New England Peptide) at final concentrations of 5 and 200 nM respectively.
In these assay plates, the positive control in column 24 contained 500 nM (final) T0070907 and the negative control in column 23 contained an identical volume of DMSO. Then, 5 μL of 2+ protein working stock or controls were added to the plate and incubated for 20 minutes at room temperature. Reagents additions were performed with either a Combi (Thermo) or Mantis (Formulatory) pipetting device. The incubation was followed by addition of 5 μL of the 2× detection solution. Plates were covered, centrifuged, and incubated for an additional hour. The TR-FRET data was recorded with an Envision plate reader (Perkin Elmer), using settings recommended by Thermo Fisher. The TR-FRET signal of the positive and negative control's recruitment of FITC-Co—R peptide was used to normalize the TR-FRET signal to percent response and to determine the assay Z prime. Experiments were performed in triplicate and analyzed in GraphPad Prism 7.

[1] = Co-R peptide recruitment to PPARγ, read-out: TR-FRET AC50

Row | AC50 [1] | AC50 (TR-FRET AC50, Co-R peptide recruitment to PPARγ) | SMILES
1 | > 1000 nM |  | COc1cc(-c2cc(C(=O)N3CCC(C)(C(=O)NC4CCC(C)CC4)CC3)n[nH]2)ccn1 (stereo not shown) [1-[5-(2-methoxypyridin-4-yl)-1H-pyrazole-3-carbonyl]-4-methyl-N-(4-methylcyclohexyl)piperidine-4-carboxamide]
2 |  | > 1000 nM | COc1cc(-c2cc(C(=O)N3CCC(C(=O)NC(C)(C)c4ccccc4)CC3)n[nH]2)ccn1 [1-[5-(2-methoxypyridin-4-yl)-1H-pyrazole-3-carbonyl]-N-(2-phenylpropan-2-yl)piperidine-4-carboxamide]
3 | > 1000 nM |  | COc1cc(-c2cc(C(=O)N3CCC(C(=O)NC4CCC(=O)CC4)CC3)n[nH]2)ccn1 [1-[5-(2-methoxypyridin-4-yl)-1H-pyrazole-3-carbonyl]-N-(4-oxocyclohexyl)piperidine-4-carboxamide]
4 | > 1000 nM |  | CC1CCC(NC(=O)C2CCN(C(=O)c3cc(-c4ccncc4C#N)[nH]n3)CC2)CC1 (stereo not shown) [1-[5-(3-cyanopyridin-4-yl)-1H-pyrazole-3-carbonyl]-N-(4-methylcyclohexyl)piperidine-4-carboxamide]
5 | > 1000 nM |  | CC1CCC(NC(=O)C2CCN(C(=O)c3cc(-c4ccncc4F)[nH]n3)CC2)CC1 (stereo not shown) [1-[5-(3-fluoropyridin-4-yl)-1H-pyrazole-3-carbonyl]-N-(4-methylcyclohexyl)piperidine-4-carboxamide]
6 | > 1000 nM |  | COc1cc(-c2cc(C(=O)N3CCC(C(=O)NC4CCS(=O)(=O)c5ccccc54)CC3)n[nH]2)c(Cl)cn1 (stereo not shown) [1-[5-(5-chloro-2-methoxypyridin-4-yl)-1H-pyrazole-3-carbonyl]-N-(1,1-dioxo-3,4-dihydro-2H-1λ^6-benzothiopyran-4-yl)piperidine-4-carboxamide]
7 | > 1000 nM |  | COc1cc(-c2cc(C(=O)N3CCC(C(=O)NC4COCOC4)CC3)n[nH]2)c(Cl)cn1 [1-[5-(5-chloro-2-methoxypyridin-4-yl)-1H-pyrazole-3-carbonyl]-N-(1,3-dioxan-5-yl)piperidine-4-carboxamide]
8 | > 1000 nM |  | COc1cc(-c2cc(C(=O)N3CCC(C(=O)Nc4nc(C)cn4C)CC3)n[nH]2)c(Cl)cn1 [1-[5-(5-chloro-2-methoxypyridin-4-yl)-1H-pyrazole-3-carbonyl]-N-(1,4-dimethyl-1H-imidazol-2-yl)piperidine-4-carboxamide]
9 | > 1000 nM |  | COc1cc(-c2cc(C(=O)N3CCC(C(=O)NC4CCN(C5CCC5)CC4)CC3)n[nH]2)c(Cl)cn1 [1-[5-(5-chloro-2-methoxypyridin-4-yl)-1H-pyrazole-3-carbonyl]-N-(1-cyclobutylpiperidin-4-yl)piperidine-4-carboxamide]
10 | > 1000 nM |  | COc1cc(-c2cc(C(=O)N3CCC(C(=O)Nc4nc5ccccc5n4C)CC3)n[nH]2)c(Cl)cn1 [1-[5-(5-chloro-2-methoxypyridin-4-yl)-1H-pyrazole-3-carbonyl]-N-(1-methyl-1H-1,3-benzodiazol-2-yl)piperidine-4-carboxamide]
11 | > 1000 nM |  | COc1cc(-c2cc(C(=O)N3CCC(C(=O)NC4COC(C)(C)OC4)CC3)n[nH]2)c(Cl)cn1 [1-[5-(5-chloro-2-methoxypyridin-4-yl)-1H-pyrazole-3-carbonyl]-N-(2,2-dimethyl-1,3-dioxan-5-yl)piperidine-4-carboxamide]
12 | > 1000 nM |  | COc1cc(-c2cc(C(=O)N3CCC(C(=O)NC4CS(=O)(=O)Cc5ccccc54)CC3)n[nH]2)c(Cl)cn1 (stereo not shown) [1-[5-(5-chloro-2-methoxypyridin-4-yl)-1H-pyrazole-3-carbonyl]-N-(2,2-dioxo-3,4-dihydro-1H-2λ^6-benzothiopyran-4-yl)piperidine-4-carboxamide]
13 | > 1000 nM |  | COc1cc(-c2cc(C(=O)N3CCC(C(=O)Nc4cccc(F)c4F)CC3)n[nH]2)c(Cl)cn1 [1-[5-(5-chloro-2-methoxypyridin-4-yl)-1H-pyrazole-3-carbonyl]-N-(2,3-difluorophenyl)piperidine-4-carboxamide]
14 | > 1000 nM |  | COc1cc(F)c(NC(=O)C2CCN(C(=O)c3cc(-c4cc(OC)ncc4Cl)[nH]n3)CC2)c(F)c1 [1-[5-(5-chloro-2-methoxypyridin-4-yl)-1H-pyrazole-3-carbonyl]-N-(2,6-difluoro-4-methoxyphenyl)piperidine-4-carboxamide]
15 | > 1000 nM |  | COc1cc(-c2cc(C(=O)N3CCC(C(=O)NC4c5ccccc5CC4O)CC3)n[nH]2)c(Cl)cn1 (stereo not shown) [1-[5-(5-chloro-2-methoxypyridin-4-yl)-1H-pyrazole-3-carbonyl]-N-(2-hydroxy-2,3-dihydro-1H-inden-1-yl)piperidine-4-carboxamide]
16 | > 1000 nM |  | COc1cc(-c2cc(C(=O)N3CCC(C(=O)NC4CCCc5[nH]c(=O)ccc54)CC3)n[nH]2)c(Cl)cn1 (stereo not shown) [1-[5-(5-chloro-2-methoxypyridin-4-yl)-1H-pyrazole-3-carbonyl]-N-(2-oxo-1,2,5,6,7,8-hexahydroquinolin-5-yl)piperidine-4-carboxamide]
17 | > 1000 nM |  | COc1cc(-c2cc(C(=O)N3CCC(C(=O)NC(C)(C)c4ccccc4)CC3)n[nH]2)c(Cl)cn1 [1-[5-(5-chloro-2-methoxypyridin-4-yl)-1H-pyrazole-3-carbonyl]-N-(2-phenylpropan-2-yl)piperidine-4-carboxamide]
18 | > 1000 nM |  | COc1cc(-c2cc(C(=O)N3CCC(C(=O)NC4(C)CC(F)(F)C4)CC3)n[nH]2)c(Cl)cn1 [1-[5-(5-chloro-2-methoxypyridin-4-yl)-1H-pyrazole-3-carbonyl]-N-(3,3-difluoro-1-methylcyclobutyl)piperidine-4-carboxamide]
19 | > 1000 nM |  | COc1cc(-c2cc(C(=O)N3CCC(C(=O)NC4CC(F)(F)C4)CC3)n[nH]2)c(Cl)cn1 [1-[5-(5-chloro-2-methoxypyridin-4-yl)-1H-pyrazole-3-carbonyl]-N-(3,3-difluorocyclobutyl)piperidine-4-carboxamide]
20 | > 1000 nM |  | COc1cc(-c2cc(C(=O)N3CCC(C(=O)Nc4nc(C)cnc4C)CC3)n[nH]2)c(Cl)cn1 [1-[5-(5-chloro-2-methoxypyridin-4-yl)-1H-pyrazole-3-carbonyl]-N-(3,6-dimethylpyrazin-2-yl)piperidine-4-carboxamide]
21 | > 1000 nM |  | COc1cc(-c2cc(C(=O)N3CCC(C(=O)NC4CCC(O)C4)CC3)n[nH]2)c(Cl)cn1 (stereo not shown) [1-[5-(5-chloro-2-methoxypyridin-4-yl)-1H-pyrazole-3-carbonyl]-N-(3-hydroxycyclopentyl)piperidine-4-carboxamide]
22 | > 1000 nM |  | COc1cc(-c2cc(C(=O)N3CCC(C(=O)Nc4nccnc4O)CC3)n[nH]2)c(Cl)cn1 [1-[5-(5-chloro-2-methoxypyridin-4-yl)-1H-pyrazole-3-carbonyl]-N-(3-hydroxypyrazin-2-yl)piperidine-4-carboxamide]
23 | > 1000 nM |  | COc1cc(-c2cc(C(=O)N3CCC(C(=O)NC4CCC(C#N)CC4)CC3)n[nH]2)c(Cl)cn1 (stereo not shown) [1-[5-(5-chloro-2-methoxypyridin-4-yl)-1H-pyrazole-3-carbonyl]-N-(4-cyanocyclohexyl)piperidine-4-carboxamide]
24 | > 1000 nM |  | CCC1(O)CCC(NC(=O)C2CCN(C(=O)c3cc(-c4cc(OC)ncc4Cl)[nH]n3)CC2)CC1 (stereo not shown) [1-[5-(5-chloro-2-methoxypyridin-4-yl)-1H-pyrazole-3-carbonyl]-N-(4-ethyl-4-hydroxycyclohexyl)piperidine-4-carboxamide]
25 | > 1000 nM |  | COc1cc(-c2cc(C(=O)N3CCC(C(=O)Nc4noc5cccc(F)c45)CC3)n[nH]2)c(Cl)cn1 [1-[5-(5-chloro-2-methoxypyridin-4-yl)-1H-pyrazole-3-carbonyl]-N-(4-fluoro-1,2-benzoxazol-3-yl)piperidine-4-carboxamide]
